Species: Rattus norvegicus
Assay: DrugMatrix - Regimen: Daily Repeat
Type: toxicity, organism-based, Sprague-Dawley
Design: regimen Daily Repeat, gender Male, age 6-8 weeks
Conditions: in vivo, po, route oral GAVAGE, vehicle 100 % WATER; for ABSOLUTE BASOPHIL / ABSOLUTE EOSINOPHIL / ABSOLUTE LYMPHOCYTE / ABSOLUTE MONOCYTE / ABSOLUTE SEGMENTED NEUTROPHIL / BASOPHIL / EOSINOPHIL / ERYTHROCYTE COUNT / HEMATOCRIT / HEMOGLOBIN / LEUKOCYTE COUNT / LYMPHOCYTE / MEAN CORPUSCULAR HEMOGLOBIN / MEAN CORPUSCULAR HEMOGLOBIN CONCENTRATION / MEAN CORPUSCULAR VOLUME / MONOCYTE / NEUTROPHIL / NUCLEATED RED BLOOD CELLS / PLATELET COUNT: tissue Blood; for ALANINE AMINOTRANSFERASE / ALBUMIN / ALKALINE PHOSPHATASE / ASPARTATE AMINOTRANSFERASE / BLOOD UREA NITROGEN / CARBON DIOXIDE / CHLORIDE / CHOLESTEROL / CREATINE PHOSPHOKINASE / CREATININE / GLUCOSE / LACTATE DEHYDROGENASE / LIPASE / PHOSPHORUS / SODIUM / TOTAL BILIRUBIN / TOTAL PROTEIN / URIC ACID: tissue Plasma
[1] = 0 mg/kg, 72 h, dose level Control, time 3 day
[2] = 0 mg/kg, 120 h, dose level Control, time 5 day
[3] = 200 mg/kg, 72 h, dose level Low, time 3 day

CC1(C)S[C@@H]2[C@H](NC(=O)[C@H](N)c3ccc(O)cc3)C(=O)N2[C@H]1C(=O)O [AMOXICILLIN]
ABSOLUTE BASOPHIL [1]: 0 CELLS/uL | ABSOLUTE EOSINOPHIL [1]: 25 CELLS/uL | ABSOLUTE LYMPHOCYTE [1]: 14357 CELLS/uL | ABSOLUTE MONOCYTE [1]: 456.33 CELLS/uL | ABSOLUTE SEGMENTED NEUTROPHIL [1]: 1461.67 CELLS/uL | BASOPHIL [1]: 0% | EOSINOPHIL [1]: 0.17% | ERYTHROCYTE COUNT [1]: 5.85 x10E6/uL | HEMATOCRIT [1]: 37.62% | HEMOGLOBIN [1]: 13.87 G/DL | LEUKOCYTE COUNT [1]: 16.3 x10E3/uL | LYMPHOCYTE [1]: 88% | MEAN CORPUSCULAR HEMOGLOBIN [1]: 23.68 pg | MEAN CORPUSCULAR HEMOGLOBIN CONCENTRATION [1]: 36.88 G/DL | MEAN CORPUSCULAR VOLUME [1]: 64.23 fL | MONOCYTE [1]: 2.83% | NEUTROPHIL [1]: 9% | NUCLEATED RED BLOOD CELLS [1]: 0 /100WBC | PLATELET COUNT [1]: 1125.33 x10E3/uL | ALANINE AMINOTRANSFERASE [1]: 49.67 u/L | ALBUMIN [1]: 4.23 G/DL | ALKALINE PHOSPHATASE [1]: 400.83 u/L | ASPARTATE AMINOTRANSFERASE [1]: 89.17 u/L | BLOOD UREA NITROGEN [1]: 16 mg/dL | CARBON DIOXIDE [1]: 31.83 mmol/L | CHLORIDE [1]: 99 MEQ/L | CHOLESTEROL [1]: 76 mg/dL | CREATINE PHOSPHOKINASE [1]: 777.67 u/L | CREATININE [1]: 0.22 mg/dL | GLUCOSE [1]: 158.33 mg/dL | LACTATE DEHYDROGENASE [1]: 186.17 u/L | LIPASE [1]: 9.33 u/L | PHOSPHORUS [1]: 12.95 mg/dL | SODIUM [1]: 141.53 MEQ/L | TOTAL BILIRUBIN [1]: 0.18 mg/dL | TOTAL PROTEIN [1]: 6.08 G/DL | URIC ACID [1]: 1.77 mg/dL | ABSOLUTE BASOPHIL [2]: 0 CELLS/uL | ABSOLUTE EOSINOPHIL [2]: 0 CELLS/uL | ABSOLUTE LYMPHOCYTE [2]: 8994.5 CELLS/uL | ABSOLUTE MONOCYTE [2]: 122.33 CELLS/uL | ABSOLUTE SEGMENTED NEUTROPHIL [2]: 666.5 CELLS/uL | BASOPHIL [2]: 0% | EOSINOPHIL [2]: 0% | ERYTHROCYTE COUNT [2]: 5.74 x10E6/uL | HEMATOCRIT [2]: 35.17% | HEMOGLOBIN [2]: 13.28 G/DL | LEUKOCYTE COUNT [2]: 9.78 x10E3/uL | LYMPHOCYTE [2]: 92.33% | MEAN CORPUSCULAR HEMOGLOBIN [2]: 23.15 pg | MEAN CORPUSCULAR HEMOGLOBIN CONCENTRATION [2]: 37.8 G/DL | MEAN CORPUSCULAR VOLUME [2]: 61.27 fL | MONOCYTE [2]: 1.33% | NEUTROPHIL [2]: 6.33% | NUCLEATED RED BLOOD CELLS [2]: 0 /100WBC | PLATELET COUNT [2]: 1117 x10E3/uL | ALANINE AMINOTRANSFERASE [2]: 47.83 u/L | ALBUMIN [2]: 4.33 G/DL | ALKALINE PHOSPHATASE [2]: 414.5 u/L | ASPARTATE AMINOTRANSFERASE [2]: 77.5 u/L | BLOOD UREA NITROGEN [2]: 17 mg/dL | CARBON DIOXIDE [2]: 32.33 mmol/L | CHLORIDE [2]: 99.33 MEQ/L | CHOLESTEROL [2]: 76.33 mg/dL | CREATINE PHOSPHOKINASE [2]: 363.67 u/L | CREATININE [2]: 0.25 mg/dL | GLUCOSE [2]: 173.5 mg/dL | LACTATE DEHYDROGENASE [2]: 129.33 u/L | LIPASE [2]: 9.17 u/L | PHOSPHORUS [2]: 11.52 mg/dL | SODIUM [2]: 143.85 MEQ/L | TOTAL BILIRUBIN [2]: 0.2 mg/dL | TOTAL PROTEIN [2]: 6.43 G/DL | URIC ACID [2]: 0.97 mg/dL | ABSOLUTE BASOPHIL [3]: 0 CELLS/uL | ABSOLUTE EOSINOPHIL [3]: 109.67 CELLS/uL | ABSOLUTE LYMPHOCYTE [3]: 14631 CELLS/uL | ABSOLUTE MONOCYTE [3]: 211.33 CELLS/uL | ABSOLUTE SEGMENTED NEUTROPHIL [3]: 914.67 CELLS/uL | BASOPHIL [3]: 0% | EOSINOPHIL [3]: 0.67% | ERYTHROCYTE COUNT [3]: 5.96 x10E6/uL | HEMATOCRIT [3]: 38.03% | HEMOGLOBIN [3]: 14 G/DL | LEUKOCYTE COUNT [3]: 15.87 x10E3/uL | LYMPHOCYTE [3]: 92.33% | MEAN CORPUSCULAR HEMOGLOBIN [3]: 23.53 pg | MEAN CORPUSCULAR HEMOGLOBIN CONCENTRATION [3]: 36.8 G/DL | MEAN CORPUSCULAR VOLUME [3]: 63.87 fL | MONOCYTE [3]: 1.33% | NEUTROPHIL [3]: 5.67% | NUCLEATED RED BLOOD CELLS [3]: 0 /100WBC | PLATELET COUNT [3]: 1509.33 x10E3/uL | ALANINE AMINOTRANSFERASE [3]: 49.33 u/L | ALBUMIN [3]: 4.4 G/DL | ALKALINE PHOSPHATASE [3]: 350 u/L | ASPARTATE AMINOTRANSFERASE [3]: 82.33 u/L | BLOOD UREA NITROGEN [3]: 15.33 mg/dL | CARBON DIOXIDE [3]: 31.33 mmol/L | CHLORIDE [3]: 99.33 MEQ/L | CHOLESTEROL [3]: 96.33 mg/dL | CREATINE PHOSPHOKINASE [3]: 449.67 u/L | CREATININE [3]: 0.21 mg/dL | GLUCOSE [3]: 146 mg/dL | LACTATE DEHYDROGENASE [3]: 163.67 u/L | LIPASE [3]: 10.33 u/L | PHOSPHORUS [3]: 11.9 mg/dL | SODIUM [3]: 142.1 MEQ/L | TOTAL BILIRUBIN [3]: 0.2 mg/dL | TOTAL PROTEIN [3]: 6.37 G/DL | URIC ACID [3]: 2.03 mg/dL
